Reference: ChEMBL document CHEMBL5154859, “Targeting the Aryl Hydrocarbon Receptor with Microbial Metabolite Mimics Alleviates Experimental Colitis in Mice” (J Med Chem, 2022)

Legend:
[1] = target: T1, AhR (aryl hydrocarbon receptor) (Homo sapiens, UniProt P35869); assay: Agonist activity at AhR (unknown origin) transfected in human AZ-AHR reporter cells derived from human HepG2 cells assessed as relative efficacy incubated for 4 hrs by luciferase reporter gene assay relative to control; assay type: cell-based; details: read-out: Efficacy
T1 sequence (P35869 whole entry): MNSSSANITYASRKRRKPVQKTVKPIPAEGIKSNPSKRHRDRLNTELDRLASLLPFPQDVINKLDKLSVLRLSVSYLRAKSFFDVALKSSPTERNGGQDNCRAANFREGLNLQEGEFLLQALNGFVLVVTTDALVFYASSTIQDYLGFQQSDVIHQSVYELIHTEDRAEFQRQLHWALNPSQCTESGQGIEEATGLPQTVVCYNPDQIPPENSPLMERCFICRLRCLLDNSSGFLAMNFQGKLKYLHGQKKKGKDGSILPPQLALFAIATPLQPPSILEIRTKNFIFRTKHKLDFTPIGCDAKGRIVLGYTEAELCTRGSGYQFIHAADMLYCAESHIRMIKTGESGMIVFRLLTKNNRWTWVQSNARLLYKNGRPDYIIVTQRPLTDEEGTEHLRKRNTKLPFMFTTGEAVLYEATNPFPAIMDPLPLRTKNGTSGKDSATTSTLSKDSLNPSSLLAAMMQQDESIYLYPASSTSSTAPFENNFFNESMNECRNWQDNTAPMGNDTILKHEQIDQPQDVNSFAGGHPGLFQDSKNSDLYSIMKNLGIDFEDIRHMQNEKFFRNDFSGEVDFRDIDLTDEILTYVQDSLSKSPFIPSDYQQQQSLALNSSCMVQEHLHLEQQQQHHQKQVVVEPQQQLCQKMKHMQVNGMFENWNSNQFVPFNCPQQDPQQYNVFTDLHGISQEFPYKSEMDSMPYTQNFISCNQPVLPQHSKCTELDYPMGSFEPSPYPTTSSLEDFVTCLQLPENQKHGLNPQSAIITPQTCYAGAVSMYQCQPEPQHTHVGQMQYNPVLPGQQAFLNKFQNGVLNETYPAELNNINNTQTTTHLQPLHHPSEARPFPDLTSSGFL

[2] = target: T2, Aryl hydrocarbon receptor (Mus musculus, UniProt P30561); assay: Displacement of [3H]TCDD from mouse AhR expressed in mouse Hepa1c1c7 cells cytosol incubated for 2 hrs by competitive radioligand binding assay; assay type: subcellular
T2 sequence (P30561 whole entry): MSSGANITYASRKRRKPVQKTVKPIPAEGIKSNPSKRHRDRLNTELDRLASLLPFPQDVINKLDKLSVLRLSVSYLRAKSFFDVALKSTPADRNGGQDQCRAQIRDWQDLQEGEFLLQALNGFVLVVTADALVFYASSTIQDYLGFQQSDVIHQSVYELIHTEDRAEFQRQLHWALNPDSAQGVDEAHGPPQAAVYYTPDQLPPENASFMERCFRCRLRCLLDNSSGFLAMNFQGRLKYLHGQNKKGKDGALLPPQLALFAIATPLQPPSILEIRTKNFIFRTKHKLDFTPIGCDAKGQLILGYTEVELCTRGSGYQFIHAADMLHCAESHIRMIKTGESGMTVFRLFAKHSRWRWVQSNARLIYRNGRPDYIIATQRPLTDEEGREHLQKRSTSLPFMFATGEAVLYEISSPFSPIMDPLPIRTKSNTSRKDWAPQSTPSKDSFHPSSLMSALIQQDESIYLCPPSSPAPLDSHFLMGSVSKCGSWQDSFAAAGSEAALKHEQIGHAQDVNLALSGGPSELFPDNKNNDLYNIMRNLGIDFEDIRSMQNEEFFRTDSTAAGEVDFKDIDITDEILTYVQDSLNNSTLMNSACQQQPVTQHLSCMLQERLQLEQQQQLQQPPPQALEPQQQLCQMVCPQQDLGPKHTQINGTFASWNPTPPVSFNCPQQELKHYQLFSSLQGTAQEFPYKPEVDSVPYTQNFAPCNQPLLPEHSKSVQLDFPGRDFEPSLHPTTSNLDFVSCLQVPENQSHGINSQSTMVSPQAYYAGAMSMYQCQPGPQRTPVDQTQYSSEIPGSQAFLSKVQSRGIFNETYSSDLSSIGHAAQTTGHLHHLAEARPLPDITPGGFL

[3] = target: T3, Aryl hydrocarbon receptor (Homo sapiens, UniProt P35869); assay: Agonist activity at AhR in human AZ-AHR reporter cell derived from human HepG2 cells assessed as increase in luciferase activity at 1 uM measured after 8 to 24 hrs; assay type: cell-based; details: TDE = time-dependent effect, time 8-24 hrs
T3 sequence (P35869 whole entry): T1 sequence (P35869 whole entry)

[4] = Metabolic stability in mouse plasma assessed as half life by LC/MS analysis; assay type: ADME, cell-free
[5] = target: T2, Aryl hydrocarbon receptor; assay: Agonist activity at AhR in mouse Hepa2Dluc cells; assay type: cell-based
[6] = target: T3, Aryl hydrocarbon receptor; assay: Agonist activity at AhR (unknown origin) transfected in human AZ-AHR reporter cells derived from human HepG2 cells incubated for 4 hrs by luciferase reporter gene assay; assay type: cell-based; details: for Activity: human, az-ahr, 4 h, DDE = dose-dependent effect
[7] = target: T3, Aryl hydrocarbon receptor; assay: Agonist activity at AhR in human LS180 cells assessed as induction of nuclear translocation at 1 uM incubated for 90 mins by DAPI staining based confocal fluorescence microscopic analysis; assay type: cell-based; details: ls180, 1.5 h
[8] = target: T3, Aryl hydrocarbon receptor; assay: Agonist activity at AhR in human LS180 cell lysates assessed as induction of AhR-ARNT heterodimerization at 1 uM incubated for 90 mins by co-immunoprecipitation assay; assay type: subcellular; details: ls180, 1.5 h
[9] = target: T3, Aryl hydrocarbon receptor; assay: Agonist activity at AhR in human LS180 cells assessed as binding of AhR to CYP1A1 promoter gene at 1 uM incubated for 90 mins by chromatin immunoprecipitation assay; assay type: cell-based; details: ls180, 1.5 h
[10] = target: T4, Nuclear receptor subfamily 1 group I member 2 (Homo sapiens, UniProt O75469); assay: Displacement of fluorescence labeled ligand from human PXR ligand binding domain by Lanthascreen TR-FRET assay
T4 sequence (O75469 whole entry): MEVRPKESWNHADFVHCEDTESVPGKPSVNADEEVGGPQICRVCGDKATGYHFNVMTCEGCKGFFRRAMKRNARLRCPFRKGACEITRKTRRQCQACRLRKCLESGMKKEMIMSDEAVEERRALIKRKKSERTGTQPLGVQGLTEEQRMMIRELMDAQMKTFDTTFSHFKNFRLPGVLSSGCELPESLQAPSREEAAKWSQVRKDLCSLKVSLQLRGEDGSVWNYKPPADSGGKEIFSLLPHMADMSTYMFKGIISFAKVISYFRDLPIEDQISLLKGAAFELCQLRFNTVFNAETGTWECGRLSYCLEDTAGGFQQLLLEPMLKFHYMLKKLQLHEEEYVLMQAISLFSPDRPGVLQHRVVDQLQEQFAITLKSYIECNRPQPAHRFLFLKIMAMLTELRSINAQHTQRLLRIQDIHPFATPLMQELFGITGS

[11] = target: T4, Nuclear receptor subfamily 1 group I member 2; assay: Agonist activity at human PXR transfected in human LS180 cells cotransfected with luciferase reporter plasmid p2A4-Luc assessed as transcriptional activity incubated for 24 hrs by luciferase reporter assay; assay type: cell-based
[12] = Stability in cell-free culture media assessed as parent compound remaining at 1 uM incubated for 12 hrs in presence of serum by LC/MS analysis; assay type: physicochemical; details: cell-free culture media with serum, read-out: Stability

COC(=O)c1csc(C(=O)c2c[nH]c3ccccc23)n1
Emax at 4 h [1]: 131% | Ki [2]: 0.01 µM | Activity [3]: Tde | half-life [4]: 44 min | EC50 [5]: 0.01 µM

C=CCn1cc(C(=O)c2nccs2)c2ccccc21
Activity [6]: Dde | Emax at 4 h [1]: 63.9%

COc1cc(Cn2cc(C(=O)c3nccs3)c3ccccc32)cc(OC)c1
Activity [6]: Dde | Emax at 4 h [1]: 57%

COc1ccc(Cn2cc(C(=O)c3nccs3)c3ccccc32)cc1
EC50 [6]: 0.11 µM | Emax at 4 h [1]: 133% | Ki [2]: 0.8 µM | Activity [7]: Active | Activity [8]: Active | Activity [9]: Active | Activity [3]: Tde

O=C(c1nccs1)c1cn(C(=O)c2ccccc2)c2ccccc12
Activity [6]: Dde | Emax at 4 h [1]: 81.4%

Cn1cc(C(=O)c2nccs2)c2ccccc21
Activity [6]: Dde | Emax at 4 h [1]: 62.9%

CC(=O)n1cc(C(=O)c2nccs2)c2ccccc21
Activity [6]: Dde | Emax at 4 h [1]: 106%

CNC(=O)c1csc(C(=O)c2c[nH]c3ccccc23)n1
IC50 [10]: 32.1 µM | EC50 [11]: 12 µM | remaining at 12 h, 1 µM [12]: 5%
